Data taken from US20060228301A1, “Methods and compositions for determining targeted drug sensitivity and resistance in a cancer subject” (priority 2005, published 2006).

Legend:
[1] = system: rat neuroblastoma (C6) cells; assay: ratio of [1-13C1]-D-ribose to [1,2-13C2]-D-ribose (m1/m2) in cultured cells contacted with [1,2-13C2]-D-glucose; format: cell-based; settings: untreated ratio 2.35
Excerpt: FIG. 6 depicts the results of in culture studies comparing the ratio of [1-^13C1]-D-ribose to [1,2-^13C2]-D-ribose in rat neuroblastoma (C6) cells which are sensitive to imatinib treatment. The increased ratio of m1/m2 ^13C in ribose indicates sensitivity to Gleevec, which is further increased by Hydroxyurea treatment, which is a well known chemotherapeutic agent for the treatment of various human cancers. The set of vertical bars on the left are observed values of m1 and the set of vertical bars on the right are observed values of m2. The calculated ratios of m1/m2 are provided above the horizontal lines.
(§1) When the ratio of [1-^13C1]-D-ribose to [1,2-^13C2]-D-ribose is less than 1 (e.g., 0.5) the patient is at risk of having a reduced response to treatment with a cancer therapeutic such as imatinib. The increased risk of developing a reduced response to imatinib includes any increased risk. In embodiments of the invention, the increased risk is about a 10% decrease in the ratio described above indicating the risk of developing imatinib resistance. In other embodiments, the increased risk is indicated by about a 10%, 15%, 20%, 25%, 50%, 75%, 85%, 90%, 95%, 98%, 99%, or 99.9% decrease in the ratio of [1-^13C1]-D-ribose to [1,2-^13C2]-D-ribose. […]

[2] = system: cultured myeloid (K-562) cells from patients with chronic myeloid leukemia; assay: ratio of [1-13C1]-D-ribose to [1,2-13C2]-D-ribose (m1/m2) in cultured CML myeloid cells exposed to Gleevec, ribose mass spectral analysis; format: cell-based, human; settings: myeloid cells from two patients resistant to Gleevec, increasing concentrations of Gleevec; cut off 0.65 for resistance
Excerpt: FIG. 5 depicts the results of studies comparing the ratio of [1-^13C1]-D-ribose to [1,2-^13C2]-D-ribose in cultured myeloid cells from patients with chronic myeloid leukemia using increasing concentrations of Gleevec (“x” axis). The set of vertical bars on the left are observed values of m1 and the set of vertical bars on the right are observed values of m2. The calculated ratios of m1/m2 are provided above the horizontal lines. In this experiment, a cut off point of 0.65 to detect resistance was used to identify Gleevec resistance. Cells from two patients resistant to Gleevec have m1/m2 ratios below 0.65, as indicated by an asterisk.
as §1

K562r cells = settings: high doses; cited from earlier work
LAMA84r cells = settings: high doses; cited from earlier work

Compound	ratio of [1-13C1]-D-ribose to [1,2-13C2]-D-ribose (m1/m2) ([1]; 3.0 μM Gleevec)	m1/m2 ratio [2]	response to Gleevec treatment (K562r cells)	response to Gleevec treatment (LAMA84r cells)	ratio of [1-13C1]-D-ribose to [1,2-13C2]-D-ribose (m1/m2) ([1]; 100 μM hydroxyurea)
Cc1ccc(NC(=O)c2ccc(CN3CCN(C)CC3)cc2)cc1Nc1nccc(-c2cccnc2)n1 [Gleevec, imatinib]	2.97	below 0.65	do not respond well even to high doses	do not respond well even to high doses	–
NC(=O)NO [hydroxyurea]	–	–	–	–	3.59
